Assay results from US20210253598A1, “ARYL ANNULATED MACROCYCLIC INDOLE DERIVATIVES” (priority 2017, published 2021).
Where a name gives a salt, the structure may show the parent alone. Read-outs that look alike come from different tables or passages of the source.

Experiments:
[1] = system: SUDHL5; assay: Induction of cytotoxicity in SUDHL5 cells, CellTiter-Glo (Assay 6); assay type: cell-based; details: SUDHL5, 5 hours incubation, median, read-out: Cytotox SUDHL5 [M] (median)
How it was run: (§1)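 Short-exposure cytotoxicity: 5 h compound, 37° C, humidified; CellTiter-Glo luminescence; cell-free medium control; edge wells omitted.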

[2] = molecular target: MCL-1 (Homo sapiens, UniProt Q07820, K194A/K197A/R201A); assay: Protein-protein interaction assay MCL-1/Noxa BH3 peptide, TR-FRET (MCL-1 assay, Assay 1); assay type: binding; details: MCL-1 Assay [M] (median), MBP-MCL-1 / Noxa BH3 peptide
How it was run: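 TR-FRET competition between compounds and a biotin-PEG Noxa BH3 tracer for 1 nM MBP-MCL-1 (residues 173-321). Incubation was 1 h at 22 °C in the dark, then overnight at 4 °C, in 50 mM Tris pH 7 buffer with KF and DTT, after a 10-min compound pre-equilibration. Normalized ratios were fitted with a 4-parameter Hill equation to give IC50.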

[3] = molecular target: BCL-XL (Homo sapiens, UniProt Q07817); assay: Protein-protein interaction assay BCL-XL/Bad BH3 peptide, TR-FRET (BCL-XL assay, Assay 2); assay type: binding; details: His-BCL-XL / Bad BH3 peptide, median
[4] = system: MV-4-11; assay: Anti-proliferative effect in MV-4-11 cells, CellTiter-Glo (Assay 7); assay type: cell-based
How it was run: (§2)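 Cells were plated and incubated overnight at 37 °C alongside a day 0 reference plate, then exposed to compound for 72 h. Viability was read by CellTiter-Glo luminescence, and IC50s were calculated using day 0 values and DMSO controls as references.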

[5] = system: SUDHL10; assay: Induction of caspase-3/7 activity in SUDHL10 cells (Assay 4); assay type: cell-based
How it was run: (§3)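 Luminescent Caspase-Glo 3/7 read-out in SUDHL5 and SUDHL10 cells after 3 h compound exposure at 37 °C, followed by 1 h reagent incubation.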

[6] = system: A2780; assay: Anti-proliferative effect in A2780 cells, CellTiter-Glo (Assay 7); assay type: cell-based; details: Homo sapiens, A2780, 72 h, several values per example
How it was run: as §2

[7] = system: SUDHL5; assay: Anti-proliferative effect in SUDHL5 cells, CellTiter-Glo (Assay 7); assay type: cell-based
How it was run: as §2

[8] = molecular target: BCL-2 (Homo sapiens, UniProt P10415); assay: Protein-protein interaction assay BCL-2/Bad BH3 peptide, TR-FRET (BCL-2 assay, Assay 3); assay type: binding; details: His-BCL-2 / Bad BH3 peptide, median
[9] = system: SUDHL10; assay: Induction of cytotoxicity in SUDHL10 cells, CellTiter-Glo (Assay 6); assay type: cell-based; details: SUDHL10, 5 hours incubation, median, read-out: Cytotox SUDHL10 [M] (median)
How it was run: as §1

[10] = system: SUDHL5; assay: Induction of caspase-3/7 activity in SUDHL5 cells (Assay 4); assay type: cell-based
How it was run: as §3

[11] = system: AMO-1; assay: Anti-proliferative effect in AMO-1 cells, CellTiter-Glo (Assay 7); assay type: cell-based; details: several values per example
How it was run: as §2

[12] = Homo sapiens, MV4-11, 72 h, MV-4-11, 72 hours incubation, CellTiter-Glo; several values per example; read-out: Antiproli MV-4-11
[13] = Homo sapiens, SU-DHL10, 3 h, SUDHL10, 3 hours treatment, Caspase-Glo 3/7, median, read-out: Caspase SUDHL10 [M] (median)
[14] = A2780, 72 hours incubation, CellTiter-Glo, read-out: Antiproli A2780
[15] = Homo sapiens, SU-DHL-5, 72 h, SUDHL5, 72 hours incubation, CellTiter-Glo, median, read-out: Antiproli SUDHL5 [M] (median)
[16] = Homo sapiens, SU-DHL-5, 3 h, SUDHL5, 3 hours treatment, Caspase-Glo 3/7, median, read-out: Caspase SUDHL5 [M] (median)
[17] = read-out: Antiproli AMO-1, AMO-1, 72 hours incubation, CellTiter-Glo
[18] = read-out: Antiproli SUDHL5 [M] (median), SUDHL5, 72 hours incubation, CellTiter-Glo
[19] = read-out: Caspase SUDHL5 [M] (median), SUDHL5, 3 hours treatment, Caspase-Glo 3/7

Chain of MCL-1 (Q07820 173-321 K194A/K197A/R201A, looked up): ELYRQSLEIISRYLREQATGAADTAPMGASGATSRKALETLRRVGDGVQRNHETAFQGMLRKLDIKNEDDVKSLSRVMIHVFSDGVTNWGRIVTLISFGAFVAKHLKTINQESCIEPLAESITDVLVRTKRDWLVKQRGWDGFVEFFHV
Chain of BCL-2 (P10415 1-211): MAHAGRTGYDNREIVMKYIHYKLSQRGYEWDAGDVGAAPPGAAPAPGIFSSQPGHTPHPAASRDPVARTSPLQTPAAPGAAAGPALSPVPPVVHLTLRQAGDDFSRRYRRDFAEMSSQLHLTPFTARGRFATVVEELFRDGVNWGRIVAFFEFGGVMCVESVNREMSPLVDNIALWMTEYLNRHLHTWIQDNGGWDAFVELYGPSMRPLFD
Chain of BCL-XL (Q07817 1-212): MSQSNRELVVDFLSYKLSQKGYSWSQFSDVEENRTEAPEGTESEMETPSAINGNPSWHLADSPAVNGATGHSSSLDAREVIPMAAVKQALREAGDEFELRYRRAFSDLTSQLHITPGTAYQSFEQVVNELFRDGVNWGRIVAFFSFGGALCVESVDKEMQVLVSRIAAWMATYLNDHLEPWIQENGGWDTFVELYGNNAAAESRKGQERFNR

SMILES | IC50 [2] [M] | IC50 [3] [µM] | IC50 [4, 12] [µM] | EC50 [5, 13] [M] | IC50 [6, 14] [M] | IC50 [7, 15] [M] | IC50 [8] [µM] | EC50 [10, 16] [M] | IC50 ([1]; Homo sapiens, SU-DHL-5, 5 h) [M] | IC50 ([9]; Homo sapiens, SU-DHL10, 5 h) [M] | IC50 [11, 17] [M] | IC50 [7, 18] [M] | EC50 [10, 19] [M] | other results
Cc1c2c(nn1C)COCc1cccnc1Cn1c(C(=O)O)c(CCCOc3cccc4ccccc34)c3ccc(Cl)c-2c31 (single isomer, unassigned; enantiomer 1) [Example 40, 3-Chloro-4,5-dimethyl-17-[3-(naphthalen-1-yloxy)propyl]-5,7,9,14-tetrahydropyrazolo-[4′,3′:9,10]pyrido[3′,2′:3,4][1,6]oxazacycloundecino[8,7,6-hi]indole-16-carboxylic acid-N-ethylethanamine Salt (Enantiomer 1)] | – | 19.4 | – | – | – | – | > 20 | – | 3.3e-06 | 8.3e-06 | 9.07e-06 | 2.2e-06 | 2.5e-06 | EC50 ([5]; Homo sapiens, SU-DHL10, 3 h, read-out: Caspase SUDHL10 [M] (median), SUDHL10, 3 hours treatment, Caspase-Glo 3/7): 1.4e-05 M; IC50 ([11]; Homo sapiens, AMO1, 72 h, read-out: Antiproli AMO-1 [M], AMO-1, 72 hours incubation, CellTiter-Glo): 7.53e-06 M; IC50 ([6]; read-out: Antiproli A2780 [M], A2780, 72 hours incubation, CellTiter-Glo): 2.19e-05 M
CCc1c2c(nn1C)COCc1ccccc1Cn1c(C(=O)O)c(CCCOc3cccc4cc(F)ccc34)c3ccc(F)c-2c31 (single isomer, unassigned; enantiomer 1) [Example 74, (−)-4-Ethyl-3-fluoro-17-{3-[(6-fluoronaphthalen-1-yl)oxy]propyl}-5-methyl-5,7,9,14-tetrahydroindolo[7,1-fg]pyrazolo[3,4-d][2,8]benzoxazacycloundecine-16-carboxylic acid-N-ethylethanamine Salt (Enantiomer 1)] | 9.2e-10 | > 20 | – | – | – | – | 19.8 | – | – | – | 1.78e-06 | 1.3e-06 | 8.2e-07 | IC50 [1]: 1.1e-06 M; IC50 ([4]; read-out: Antiproli MV-4-11; MV-4-11, 72 hours incubation, CellTiter-Glo; several values per example): 3.65 µM; EC50 ([5]; read-out: Caspase SUDHL10 [M] (median), SUDHL10, 3 hours treatment, Caspase-Glo 3/7): 1.2e-06 M; IC50 [9]: 1.4e-06 M
Cc1cc(OCCCc2c(C(=O)O)n3c4c(c(F)ccc24)-c2c(nn(C)c2C)COCc2ccccc2C3)cc(C)c1Cl [Example 60, (rac)-1-(3-(4-Chloro-3,5-dimethylphenoxy)propyl)-15-fluoro-13,14-dimethyl-4,9,11,13-tetrahydrobenzo[3,4]pyrazolo[4′,3′:9,10][1,6]oxaazacycloundecino[8,7,6-hi]indole-2-carboxylic Acid] | 2.9e-09 | > 20 | 5.75 | 1.2e-05 | 2.3e-05 | 5.1e-06 | 19.8 | 3e-06 | 3.7e-06 | 7.6e-06 | – | – | – | –

Continued, in another order:

IC50 [2] [M] | IC50 [3] [µM] | IC50 [4, 12] [µM] | EC50 [5, 13] [M] | IC50 [6, 14] [M] | IC50 [7, 15] [M] | IC50 [8] [µM] | EC50 [10, 16] [M] | SMILES | IC50 ([1]; Homo sapiens, SU-DHL-5, 5 h) [M] | IC50 ([9]; Homo sapiens, SU-DHL10, 5 h) [M] | IC50 [11, 17] [M] | IC50 [7, 18] [M] | EC50 [10, 19] [M] | other results
7.4e-09 | > 20 | 9.93 | 1.7e-05 | 1.51e-05 | 6e-06 | 13.7 | 6.2e-06 | CCc1nn(C)c2c1-c1c(F)ccc3c(CCCOc4cccc5c4CCCC5)c(C(=O)O)n(c13)Cc1ccccc1COC2 (racemic) [Example 88, (rac)-14-Ethyl-15-fluoro-12-methyl-1-(3-((5,6,7,8-tetrahydronaphthalen-1-yl)oxy)propyl)-4,9,11,12-tetrahydrobenzo[3,4]pyrazolo[4′,3′:9,10][1,6]oxaazacycloundecino[8,7,6-hi]indole-2-carboxylic Acid] | 7.4e-06 | 1.5e-05 | – | – | – | –
8.6e-09 | > 20 | 12.4 | 1.2e-05 | – | 3.6e-06 | ≥ 20.5 | 2.8e-06 | CCc1nn(C)c2c1-c1c(F)ccc3c(CCCOc4cccc5ccccc45)c(C(=O)O)n(c13)Cc1ccccc1COC2 (racemic) [Example 91, (rac)-14-Ethyl-15-fluoro-12-methyl-1-(3-(naphthalen-1-yloxy)propyl)-4,9,11,12-tetrahydrobenzo[3,4]pyrazolo[4′,3′:9,10][1,6]oxaazacycloundecino[8,7,6-hi]indole-2-carboxylic Acid] | 3.2e-06 | 7.5e-06 | – | – | – | IC50 ([4]; MV-4-11, 72 hours incubation, CellTiter-Glo; several values per example; read-out: Antiproli MV-4-11): 11.7 µM; IC50 ([11]; AMO-1, 72 hours incubation, CellTiter-Glo, read-out: Antiproli AMO-1): 1.53e-05 M; IC50 ([11]; Homo sapiens, AMO1, 72 h, AMO-1, 72 hours incubation, CellTiter-Glo, read-out: Antiproli AMO-1): 1.87e-05 M
